Reference: patent US20220098203A1 (priority 2018, published 2022)
Where two headings read alike, the source gives them in different places.

Assays:
HCT116 MTAP+/+ = experiment: Inhibition of cellular proliferation (Cell Titer Glo), HCT116 MTAP+/+; format: cell-based; conditions: Homo sapiens, HCT-116, 96 h, Table 5a, 4 days, read-out: 4 Day Relative Growth Inhibition (MTAP +/+)
How it was run: (§1)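 Isogenic HCT116 MTAP+/+ and MTAP−/− cells were plated, treated with MAT2A inhibitor after 24 h, and incubated 4 days at 37 °C. Proliferation was read by CellTiter-Glo ATP luminescence, blank-subtracted and normalized to 0.2% DMSO control.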

[1] = test system: SAM in HCT116 MTAP-deleted cells; experiment: Cellular assay of target engagement (SAM), LC-MS/MS; format: cell-based, human; conditions: 72 h, read-out: Cell 72 h SAM Inhibition (MTAP −/−)
How it was run: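 HCT116 cells with MTAP deleted were treated with compound for 72 h at 37°C/5% CO2. After quenching lysis in cold 80% methanol with 1 M acetic acid, SAM was quantified by LC-MS/MS against a d3-SAM internal standard.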

MAT2A homodimer = target: T1, MAT2A homodimer (Homo sapiens, UniProt P31153); experiment: MAT2A biochemical assay (liberated phosphate, PiColorLock Gold); conditions: Table 5a; MAT2A biochemical assay; read-out: Enzyme Inhibition
T1 construct: inferred from the Ni sepharose purification and imidazole elution; made in house; host or cells: SF9 insect cells, recombinant baculovirus (Bac to Bac, pFASTBAC1)
How it was run: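 Baculovirus/Sf9-expressed, Ni-purified MAT2A homodimer preincubated with compound 60 min at 25 °C, then reacted 60 min at 25 °C with substrate mix of 500 μM ATP and 400 μM L-methionine, pH 7.0 (mix, not final levels). Phosphate released with SAM measured by PiColorLock Gold against phosphate standard curve.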

HCT116 MTAP-/- = experiment: Inhibition of cellular proliferation (Cell Titer Glo), HCT116 MTAP-/-; format: cell-based, human; conditions: 4 days, read-out: 4 Day Relative Growth Inhibition (MTAP −/−)
How it was run: as §1

[2] = Homo sapiens, HCT-116, Table 5a
[3] = Homo sapiens, HCT-116, 96 h, Table 5a
[4] = Table 6, select pairs of compounds

T1 sequence (P31153 whole entry): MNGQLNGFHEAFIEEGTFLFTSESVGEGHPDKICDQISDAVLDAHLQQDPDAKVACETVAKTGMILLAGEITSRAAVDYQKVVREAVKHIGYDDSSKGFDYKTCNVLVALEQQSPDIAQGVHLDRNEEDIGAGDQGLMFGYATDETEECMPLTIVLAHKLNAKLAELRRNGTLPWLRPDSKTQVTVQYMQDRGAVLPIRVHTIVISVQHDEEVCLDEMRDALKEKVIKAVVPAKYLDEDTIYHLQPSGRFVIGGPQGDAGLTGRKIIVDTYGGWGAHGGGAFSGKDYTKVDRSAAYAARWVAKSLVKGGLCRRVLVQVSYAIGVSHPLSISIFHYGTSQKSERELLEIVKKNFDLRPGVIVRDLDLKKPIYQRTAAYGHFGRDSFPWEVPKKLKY

| IC50 (HCT116 MTAP+/+) | IC50 [1, 2] | IC50 (MAT2A homodimer) | IC50 (HCT116 MTAP-/-; [3]) | IC50 [1, 4] | IC50 (HCT116 MTAP-/-; [4]) | SMILES |
| --- | --- | --- | --- | --- | --- | --- |
| > 1000 nM | < 100 nM | < 100 nM | 100 to 1000 nM | – | – | COc1ccc(N2Cc3cnc(NCC(F)(F)F)nc3N(c3ccc(-c4nc[nH]n4)cc3)C2=O)cc1 [Example 193, 1-(4-(1H-1,2,4-triazol-3-yl)phenyl)-3-(4-methoxyphenyl)-7-((2,2,2-trifluoroethyl)amino)-3,4-dihydropyrimido[4,5-d]pyrimidin-2(1H)-one] |
| > 1000 nM | < 100 nM | < 100 nM | 100 to 1000 nM | – | – | [2H]C([2H])([2H])Oc1ccc(N2Cc3cnc(NCC(F)(F)F)nc3N(c3ccc(-c4nc[nH]n4)cc3)C2=O)cc1 [Example 215, 1-(4-(1H-1,2,4-triazol-3-yl)phenyl)-3-(4-(methoxy-d3)phenyl)-7-((2,2,2-trifluoroethyl)amino)-3,4-dihydropyrimido[4,5-d]pyrimidin-2(1H)-one] |
| > 1000 nM | < 100 nM | < 100 nM | < 100 nM | – | – | Cc1nc2ccc(N3Cc4cnc(NCC(F)(F)F)nc4N(c4ccc(-c5nc[nH]n5)cc4)C3=O)cc2s1 [Example 217, 1-(4-(1H-1,2,4-triazol-3-yl)phenyl)-3-(2-methylbenzo[d]thiazol-6-yl)-7-((2,2,2-trifluoroethyl)amino)-3,4-dihydropyrimido[4,5-d]pyrimidin-2(1H)-one] |
| > 1000 nM | 100 to 1000 nM | < 100 nM | 100 to 1000 nM | – | – | Cn1cnc2ccc(N3Cc4cnc(NCC(F)(F)F)nc4N(c4ccc(-c5nc[nH]n5)cc4)C3=O)cc21 [Example 218, 1-(4-(1H-1,2,4-triazol-3-yl)phenyl)-3-(1-methyl-1H-benzo[d]imidazol-6-yl)-7-((2,2,2-trifluoroethyl)amino)-3,4-dihydropyrimido[4,5-d]pyrimidin-2(1H)-one] |
| > 1000 nM | < 100 nM | < 100 nM | 100 to 1000 nM | – | – | O=C1N(c2ccc3ncsc3c2)Cc2cnc(NCC(F)(F)F)nc2N1c1ccc(-c2nc[nH]n2)cc1 [Example 219, 1-(4-(1H-1,2,4-triazol-3-yl)phenyl)-3-(benzo[d]thiazol-6-yl)-7-((2,2,2-trifluoroethyl)amino)-3,4-dihydropyrimido[4,5-d]pyrimidin-2(1H)-one] |
| > 1000 nM | 100 to 1000 nM | < 100 nM | 100 to 1000 nM | – | – | Cn1cc2cc(N3Cc4cnc(NCC(F)(F)F)nc4N(c4ccc(-c5nc[nH]n5)cc4)C3=O)ccc2n1 [Example 220, 1-(4-(1H-1,2,4-triazol-3-yl)phenyl)-3-(2-methyl-2H-indazol-5-yl)-7-((2,2,2-trifluoroethyl)amino)-3,4-dihydropyrimido[4,5-d]pyrimidin-2(1H)-one] |
| > 1000 nM | < 100 nM | < 100 nM | 100 to 1000 nM | – | – | O=C1N(c2ccc3ncccc3c2)Cc2cnc(NCC(F)(F)F)nc2N1c1ccc(-c2nc[nH]n2)cc1 [Example 223, 1-(4-(1H-1,2,4-triazol-3-yl)phenyl)-3-(quinolin-6-yl)-7-((2,2,2-trifluoroethyl)amino)-3,4-dihydropyrimido[4,5-d]pyrimidin-2(1H)-one] |

Continued, molecule first:

| SMILES | IC50 (HCT116 MTAP+/+) | IC50 [1, 2] | IC50 (MAT2A homodimer) | IC50 (HCT116 MTAP-/-; [3]) | IC50 [1, 4] | IC50 (HCT116 MTAP-/-; [4]) |
| --- | --- | --- | --- | --- | --- | --- |
| COc1ccc(N2Cc3cnc(NCC(F)F)nc3N(c3ccc(-c4nc[nH]n4)cc3)C2=O)cc1 [Example 188, 1-(4-(1H-1,2,4-triazol-3-yl)phenyl)-7-((2,2-difluoroethyl)amino)-3-(4-methoxyphenyl)-3,4-dihydropyrimido[4,5-d]pyrimidin-2(1H)-one] | > 1000 nM | 100 to 1000 nM | < 100 nM | 100 to 1000 nM | – | – |
| CCNc1ncc2c(n1)N(c1ccc(OC(F)F)cc1)C(=O)N(c1ccc3nn(C)cc3c1)C2 [Example 190, 1-(4-(difluoromethoxy)phenyl)-7-(ethylamino)-3-(2-methyl-2H-indazol-5-yl)-3,4-dihydropyrimido[4,5-d]pyrimidin-2(1H)-one] | > 1000 nM | 100 to 1000 nM | < 100 nM | 100 to 1000 nM | 100 to 1000 nM | 100 to 1000 nM |
| COc1ccc(N2Cc3cnc(NCC(F)(F)F)nc3N(c3ccc(-c4c[nH]cn4)cc3)C2=O)cc1 [Example 196, 1-(4-(1H-imidazol-4-yl)phenyl)-3-(4-methoxyphenyl)-7-((2,2,2-trifluoroethyl)amino)-3,4-dihydropyrimido[4,5-d]pyrimidin-2(1H)-one] | > 1000 nM | 100 to 1000 nM | < 100 nM | 100 to 1000 nM | – | – |
| COc1ccc(N2Cc3cnc(NCC(F)(F)F)nc3N(c3ccc(CO)cc3)C2=O)cc1 [Example 202, 1-(4-(hydroxymethyl)phenyl)-3-(4-methoxyphenyl)-7-((2,2,2-trifluoroethyl)amino)-3,4-dihydropyrimido[4,5-d]pyrimidin-2(1H)-one] | > 1000 nM | 100 to 1000 nM | 100 to 1000 nM | 100 to 1000 nM | – | – |
| COc1ccc(N2Cc3cnc(NCC(F)(F)F)nc3N(c3ccc(CCO)cc3)C2=O)cc1 [Example 206, 1-(4-(2-hydroxyethyl)phenyl)-3-(4-methoxyphenyl)-7-((2,2,2-trifluoroethyl)amino)-3,4-dihydropyrimido[4,5-d]pyrimidin-2(1H)-one] | > 1000 nM | 100 to 1000 nM | < 100 nM | 100 to 1000 nM | – | – |
| O=C1N(c2ccc3c(c2)OCCO3)Cc2cnc(NCC(F)(F)F)nc2N1c1ccc(-c2nc[nH]n2)cc1 [Example 214, 1-(4-(1H-1,2,4-triazol-3-yl)phenyl)-3-(2,3-dihydrobenzo[b][1,4]dioxin-6-yl)-7-((2,2,2-trifluoroethyl)amino)-3,4-dihydropyrimido[4,5-d]pyrimidin-2(1H)-one] | > 1000 nM | < 100 nM | < 100 nM | 100 to 1000 nM | – | – |
| Cn1cc2cc(N3Cc4cnc(NCC(F)(F)F)nc4N(c4ccc(OC(F)F)cc4)C3=O)ccc2n1 [Example 216, 1-(4-(difluoromethoxy)phenyl)-3-(2-methyl-2H-indazol-5-yl)-7-((2,2,2-trifluoroethyl)amino)-3,4-dihydropyrimido[4,5-d]pyrimidin-2(1H)-one] | > 1000 nM | < 100 nM | < 100 nM | < 100 nM | < 100 nM | < 100 nM |
| COc1ccc(N2C(=O)N(c3ccnc(OC)c3)Cc3cnc(NCC(F)(F)F)nc32)cc1 [Example 228, 1-(4-methoxyphenyl)-3-(2-methoxypyridin-4-yl)-7-((2,2,2-trifluoroethyl)amino)-3,4-dihydropyrimido[4,5-d]pyrimidin-2(1H)-one] | > 1000 nM | 100 to 1000 nM | < 100 nM | 100 to 1000 nM | – | – |
| COc1ccc(N2C(=O)N(c3cn[nH]c3)Cc3cnc(NCC(F)(F)F)nc32)cc1 [Example 231, 1-(4-methoxyphenyl)-3-(1H-pyrazol-4-yl)-7-((2,2,2-trifluoroethyl)amino)-3,4-dihydropyrimido[4,5-d]pyrimidin-2(1H)-one] | > 1000 nM | 100 to 1000 nM | 100 to 1000 nM | > 1000 nM | – | – |
| COc1ccc(N2C(=O)N(c3ccc(=O)n(C)c3)Cc3cnc(NCC(F)(F)F)nc32)cc1 [Example 232, 1-(4-methoxyphenyl)-3-(1-methyl-6-oxo-1,6-dihydropyridin-3-yl)-7-((2,2,2-trifluoroethyl)amino)-3,4-dihydropyrimido[4,5-d]pyrimidin-2(1H)-one] | > 1000 nM | > 1000 nM | 100 to 1000 nM | > 1000 nM | – | – |
| COc1ccc(N2C(=O)N(c3ccc4[nH]cnc4c3)Cc3cnc(NCC(F)(F)F)nc32)cc1 [Example 234, 3-(1H-benzo[d]imidazol-5-yl)-1-(4-methoxyphenyl)-7-((2,2,2-trifluoroethyl)amino)-3,4-dihydropyrimido[4,5-d]pyrimidin-2(1H)-one] | > 1000 nM | 100 to 1000 nM | < 100 nM | 100 to 1000 nM | – | – |
| COc1ccc(N2Cc3cnc(NCC(F)(F)F)nc3N(c3ccc(OC(F)F)cc3)C2=O)cc1 [Example 235, 1-(4-(Difluoromethoxy)phenyl)-3-(4-methoxyphenyl)-7-(2,2,2-trifluoroethylamino)-3,4-dihydropyrimido[4,5-d]pyrimidin-2(1H)-one] | > 1000 nM | 100 to 1000 nM | < 100 nM | 100 to 1000 nM | – | – |
| COc1ccc(N2Cc3cnc(NCC(F)(F)F)nc3N(c3ccc(Br)cc3)C2=O)cc1 [Example 236, 1-(4-bromophenyl)-3-(4-methoxyphenyl)-7-((2,2,2-trifluoroethyl)amino)-3,4-dihydropyrimido[4,5-d]pyrimidin-2(1H)-one] | > 1000 nM | 100 to 1000 nM | < 100 nM | > 1000 nM | – | – |
| COc1ccc(N2C(=O)N(c3ccc4nccn4c3)Cc3cnc(NCC(F)(F)F)nc32)cc1 [Example 237] | > 1000 nM | 100 to 1000 nM | < 100 nM | 100 to 1000 nM | – | – |
| COc1ccc(N2C(=O)N(c3ccc4ncccc4c3)Cc3cnc(NCC(F)(F)F)nc32)cc1 [Example 241] | > 1000 nM | 100 to 1000 nM | < 100 nM | 100 to 1000 nM | – | – |
